“Also recorded” adds a separate entry of the source.
Experiments:
[1] = tested on: 19Q nematodes (normal polyQ); test: Touch test in 19Q control nematodes; format: in vivo, C. elegans
Procedure: (§1) The wild-type strain of C. elegans used was Bristol N2. Standard methods of culturing and handling worms were used. All strains were scored at 20° C. Touch tests, scoring of PLM cell processes, drug response assays and quantitative Real-Time PCR were performed as previously described (Parker et al. 2005 Nat Genet. 37:349-350). Western analysis was performed using standard protocols and htt fusion proteins detected with the GFP antibody ab6556 (Abcam). Mutations and transgenes used in this study were: aak-2(ok524), bar-1(ga80), cfz-2(ok 1201), cst-1(tm1900), ctl-2(ok1137), cwn-1(ok546), cwn-2(ok895), daf-2(e1370), daf-16(mgD150), dhc-1(or195), dnc-1(or 404), egl-20(n585), ftt-2(n4426), geln3[sir-2.1(+)], igls1[mec-3::htt57Q128::CFP;mec-7::YFP;lin-15(+)], igls245[mec-3::htt57Q19::CFP; mec-7::YFP; lin-15(+)]. lin-17(n671), lin-44(n1792), mig-1(e1787), pop-1(q624), rrf-3(pk1426), sir-2.1(ok434), sod-3(gk235) and ucp-4(ok 195). […]
(§2) Touch tests involved scoring for the response to light touch at the tail by using a fine hair. […] The responses were recorded for every animal such that, for example, 3 responses out of 10 at the tail is given as 30% responsiveness, and the mean values for responsiveness were retained for comparison of nematode groups.

109Q/109Q striatal cells = test: Cell death assay in mutant htt striatal cells from HdhQ111 mice; format: cell-based, mouse
Procedure: Cell death assays for HdhQ111 mouse striatal cells expressing full-length htt with either wild-type (7Q/7Q) or mutant (109Q/109Q) polyglutamines were performed as previously described (Arango et al. 2006 Neurosci 26:4649-59). jetPEI was used for transfection with cDNA and jetSI-ENDO for siRNA assays as indicated by the manufacturer (PolyPlus Transfection). siRNA oligos were obtained from Clontech (β-catenin) and QIAGEN (SIRT1, SIRT2, SIRT3, UCP2 and UCP4). Mixes of 3-4 different siRNA sequences per gene (25 or 33 nM) were systematically tested for modulation of cell survival and siRNA target gene expression, followed by the evaluation of individual siRNA sequences at optimal concentration (25-100 nM). […] The siRNA sequences shown in figures are as it follows: β-catenin siRNA, 5′-[…]-3′ (100 nM) (SEQ ID NO:41); FoxO3a siRNA 5′-[…]-3′ (SEQ ID NO:42) (100 nM); SIRT1 siRNA, 5′-[…]-3′ (SEQ ID NO:43) (25 nM); SIRT2 siRNA 5′-[…]-3′ (SEQ ID NO:44) (25 nM); SIRT3 siRNA, 5′-[…]-3′ (SEQ ID NO:45) (25 nM); UCP2 siRNA, 5′-[…]-3′ (SEQ ID NO:46) (33 nM), and UCP4 siRNA sequences 5′-[…]-3′ (SEQ ID NO:47) (33 nM). The constructs encoding an active variant of SIRT1 (2 kb cDNA) lacking an internal segment in the N-terminus and full length FoxO3a were pcDNA3.1-sirt1-Flag and pcDNA3.1-FoxO3a-HA, respectively. Cells were subjected to DAPI staining and cell death was scored 48 hours after cell transfection by counting picnotic versus normal nuclei in DAPI- and JetSI-ENDO-positive cells. Cytoplasmic and nuclear proteins were extracted as previously described (Arango et al. 2006 Neurosci 26:4649-59), separated by SDS-PAGE and analyzed by Western blotting using the following primary antibodies: Mouse anti-SIRT1 (Upstate, 1:1000), mouse anti-SIRT2 (Santa Cruz, 1:100), rabbit anti-SIRT-3 (Abgent, 1:100), rabbit-anti-β-catenin (Cell Signaling, 1:5000), mouse anti-FoxO3a (Cell Signaling, 1:1000), goat-anti-UCP2 (Santa Cruz, dilution), rabbit-anti-UCP4 (Abcam, 1:25), mouse anti-actin (Invitrogen, 1:2000), anti-htt (4C8, Chemicon, 1:5000). Secondary antibodies were goat-anti-mouse IgG HRP-conjugated and goat-anti-rabbit IgG HRP-conjugated (Biorad). Proteins were detected using ECL+ and evaluated by densitometry. Quantitative Real-Time PCR experiments were performed as described in the Supporting Information/Materials and Methods. Chemicals were either purchased from Sigma (Resveratrol) and Calbiochem (B10, LiCl).

[2] = tested on: PLM cells of 128Q animals; test: Scoring of PLM cell processes (axonal swelling); format: in vivo, C. elegans; settings: versus DMSO controls
Procedure: as §1, with “195). All strains were obtained from the C. elegans Genetics Center (University of Minnesota, Minneapolis) except for cst-1(tm1900) which was from the National Bioresource Project for the Nematode (Tokyo, Japan). For strain construction with polyQ transgenes, mutants were verified by visible phenotypes, PCR analysis for deletion mutants, sequencing for point mutations or a combination thereof.” for “195).”

[3] = tested on: 128Q nematodes (expanded polyQ in touch receptor neurons); test: Touch test (response to light touch at the tail) in 128Q nematodes; format: in vivo, C. elegans
Procedure: as §1, §2

mutant htt = test: Western blot of mutant htt in 109Q/109Q cells; format: cell-based, mouse
Procedure: (§3) Cell death assays for HdhQ111 mouse striatal cells expressing full-length htt with either wild-type (7Q/7Q) or mutant (109Q/109Q) polyglutamines were performed as previously described (Arango et al. 2006 Neurosci 26:4649-59). jetPEI was used for transfection with cDNA and jetSI-ENDO for siRNA assays as indicated by the manufacturer (PolyPlus Transfection). siRNA oligos were obtained from Clontech (β-catenin) and QIAGEN (SIRT1, SIRT2, SIRT3, UCP2 and UCP4). […] Cells were subjected to DAPI staining and cell death was scored 48 hours after cell transfection by counting picnotic versus normal nuclei in DAPI- and JetSI-ENDO-positive cells. Cytoplasmic and nuclear proteins were extracted as previously described (Arango et al. 2006 Neurosci 26:4649-59), separated by SDS-PAGE and analyzed by Western blotting using the following primary antibodies: Mouse anti-SIRT1 (Upstate, 1:1000), mouse anti-SIRT2 (Santa Cruz, 1:100), rabbit anti-SIRT-3 (Abgent, 1:100), rabbit-anti-β-catenin (Cell Signaling, 1:5000), mouse anti-FoxO3a (Cell Signaling, 1:1000), goat-anti-UCP2 (Santa Cruz, dilution), rabbit-anti-UCP4 (Abcam, 1:25), mouse anti-actin (Invitrogen, 1:2000), anti-htt (4C8, Chemicon, 1:5000). […] Proteins were detected using ECL+ and evaluated by densitometry. Quantitative Real-Time PCR experiments were performed as described in the Supporting Information/Materials and Methods. […]

UCP4 mRNA = test: Quantitative RT-PCR of UCP4 mRNA in striatal cells; format: cell-based, mouse; settings: for UCP4 mRNA levels: 109Q/109Q cells, qRT-PCR
Procedure: as §3, with “UCP4). Mixes of 3-4 different siRNA sequences per gene (25 or 33 nM) were systematically tested for modulation of cell survival and siRNA target gene expression, followed by the evaluation of individual siRNA sequences at optimal concentration (25-100 nM).” for “UCP4).”
Quantitative RT-PCR was performed on RNA extracted from 109Q/109Q mouse striatal cells, transfected with the appropriate siRNAs, to assess gene silencing efficiency. […]

7Q/7Q striatal cells = test: Cell death assay in normal htt striatal cells; format: cell-based, mouse; settings: siRNA
Procedure: as §3

[4] = tested on: reactive oxygen species (ROS) levels in striatal cells; test: ROS levels in striatal cells; format: cell-based, mouse
UCP2 mRNA = test: Quantitative RT-PCR of UCP2 mRNA in striatal cells; format: cell-based, mouse
Procedure: as §3

β-catenin = test: Western blot of β-catenin in 109Q/109Q cells; format: cell-based, mouse
Procedure: as §3

[5] = siRNA 25-100 nM, cell death scored 48 hours after transfection, versus untreated

How did the “effect on normal polyQ (19Q) controls, touch response” value [1] turn out when `O=C1Nc2cc(Br)ccc2/C1=C1/Nc2ccccc2/C1=N\O` [BIO, 6-bromoindirubin-3′-oxime] was run?
The value was “no effect on 19Q controls”.

And the “survival effect of BIO combined with β-catenin siRNA” value (109Q/109Q striatal cells; BIO 0.5 μM + β-catenin siRNA, 109Q/109Q cells)?
The value was “lost by β-catenin siRNA”.

What about the “survival of 109Q/109Q cells” value (109Q/109Q striatal cells; BIO 0.5 μM, cell death induced by serum deprivation, versus DMSO controls) of the same compound?
The value was “enhanced the survival of 109Q/109Q cells”.

And the “axonal swelling (AxSw)” value [2]?
The value was “reduced AxSw in PLM cells of 128Q animals; also recorded: reduced axonal swelling”.

What about the “neuronal dysfunction / expanded polyQ neurotoxicity (loss of response to touch)” value ([3]; 128Q nematodes, versus DMSO or untreated […]Q controls) of the same compound?
Its value is “rescues expanded polyQ neurotoxicity; also recorded: reduced neuronal dysfunction in 1280 animals”.

And the “BIO rescuing activity in 128Q animals mutant for FoxO network genes” value ([3]; 128Q, mutants for daf-16, sir-2.1, bar-1 and ucp-4)?
Its value is “lost and in a bar-1 dependent manner and no effect in mutants for sir-2.1, daf-16 and ucp-4”.

Which “effect on normal polyQ (19Q) controls, touch response” value [1] does the source give for `[Cl-].[Li+]` [Lithium chloride] here?
Its value is “no effects on 19Q controls”.

What does the source list for “UCP4 siRNA: siRNA 5′-GCCTATAGTATGTGCTTAATT-3′ (SEQ ID NO:47) (33 nM) (listed as DNA, chemistry not given here)”?
mutant htt expression (mutant htt): unchanged; also recorded: no change in htt expression; survival of 109Q/109Q cells (109Q/109Q striatal cells; [5]): increased the survival of 109Q/109Q cells; UCP4 mRNA levels (UCP4 mRNA): decreased UCP4 mRNA levels

Which mutant htt expression (mutant htt) does the source give for “β-catenin siRNA: siRNA 5′-GGCTTTTCCCAGTCCTTCATT-3′ (100 nM) (SEQ ID NO:41) (listed as DNA, chemistry not given here)” here?
The mutant htt expression was “unchanged; also recorded: no change in htt expression”.

What about the “survival of normal htt (7Q/7Q) cells” value (7Q/7Q striatal cells) of the same compound?
Its value is “no effects in normal htt cells”.

And the “survival of 109Q/109Q cells” value (109Q/109Q striatal cells; [5])?
Its value is “reduced the survival of mutant htt striatal cells; also recorded: decreased the survival of 109Q/109Q cells”.

What about the ROS levels ([4]; mutant htt (109Q/109Q) striatal cells, versus untreated) of the same compound?
The ROS levels was “increased reactive oxygen species (ROS) levels in mutant htt striatal cells”.

What about the ROS levels ([4]; normal htt (7Q/7Q) cells) of the same compound?
Its ROS levels is “no effects in normal htt cells”.

And the UCP2 expression (UCP2 mRNA; 7Q/7Q cells)?
The UCP2 expression was “No effect”.

And the “UCP2 mRNA levels” value (UCP2 mRNA; 109Q/109Q cells, qRT-PCR)?
The value was “downregulated; also recorded: decreased UCP2 mRNA levels”.

And the β-catenin expression (β-catenin)?
Its β-catenin expression is “β-catenin was reduced”.

And the UCP4 expression (UCP4 mRNA; 7Q/7Q cells)?
Its UCP4 expression is “No effect”.

What about the “UCP4 mRNA levels” value (UCP4 mRNA) of the same compound?
The value was “upregulated”.

— patent US20140377379A1, “METHOD FOR PROGNOSING THE AGE-AT-ONSET OF HUNTINGTON'S DISEASE” (Institut National de la Sante et de la Recherche Medicale …, priority 2010, published 2014)
